{"source": "patent US3959290A", "about": "“3,14-Substituted-8-oxamorphinans” (Bristol-Myers Company, priority 1974, dated 1976)", "key": {"[1]": {"system": "analgesic effect induced by morphine", "experiment": "animal or person", "format": "in vivo", "details": "morphine 15 mg./kg. sc., weights in terms of the free base; for ED50: Rattus norvegicus", "procedure": "(§1) In vivo testing was conducted on the compounds designated herein as XVc (racemic mixture), d-XVc (dextrorotatory isomer), l-XVc (levorotatory isomer) and dl-XVd (see examples for structures) to determine their agonist and/or antagonist properties. The figures reported are the number of milligrams/kilogram of body weight of compound that produced an agonist or antagonist effect in 50% of the mice and rats so tested (ED50).\n(§2) All the compounds were tested as the tartrates, but the weights reported in mg./kg. are corrected and reported in terms of the free base."}, "[2]": {"system": "Straub Tail induced by oxymorphone", "experiment": "Antagonism of Straub Tail induced by oxymorphone in 50 per cent of mice", "format": "in vivo", "details": "oxymorphone 2 mg./kg. sc., weights in terms of the free base; for ED50: Mus musculus", "procedure": "as §1, §2\n^2 Antagonism of Straub Tail induced by oxymorphone (2 mg./kg. sc.) in 50 per cent of mice."}, "[3]": {"system": "phenylquinone induced writhings", "experiment": "Phenylquinone writhing (50 per cent reduction in number of phenylquinone induced writhings), mouse", "format": "in vivo", "details": "for ED50 Agonist Activity, Phenylquinone Writhing, Mouse, SC / ED50: weights in terms of the free base", "procedure": "as §1, §2\n(§3) ^1 A 50 per cent reduction in number of phenylquinone induced writhings (Siegmund, E. A. et al., Proc. Soc. Biol. & Med. 95, 729; 1957)."}, "[4]": {"system": "righting reflex loss induced by oxymorphone", "experiment": "animal or person", "format": "in vivo", "details": "Rattus norvegicus, rats, oxymorphone 1.5 mg./kg. sc., weights in terms of the free base", "procedure": "as §1, §2\n^3 Antagonism of righting reflex loss induced by oxymorphone (1.5 mg./kg. sc.) in 50 per cent of rats."}, "[5]": {"system": "phenylquinone induced writhings", "experiment": "Phenylquinone writhing (50 per cent reduction in number of phenylquinone induced writhings), rat", "format": "in vivo", "details": "weights in terms of the free base; for ED50: Rattus norvegicus", "procedure": "as §1, §2, §3"}, "[6]": {"experiment": "In vivo testing for agonist and/or antagonist properties (overall conclusion from Table I)", "design": "species or system mice and rats", "details": "parenteral and oral administration", "procedure": "as §1"}, "[7]": {"details": "SC, read-out: ED50 Antagonist Activity, Oxymorphone Narcosis, SC"}, "[8]": {"details": "sc, read-out: ED50 Antagonist Activity, Morphine Antagonism Rat Tail Flick, SC"}, "[9]": {"details": "sc, read-out: ED50 Agonist Activity, Phenylquinone Writhing, Rat, SC"}, "[10]": {"details": "sc, read-out: ED50 Antagonist Activity, Oxymorphone Straub Tail, SC"}, "[11]": {"details": "Mus musculus, sc, read-out: ED50 Agonist Activity, Phenylquinone Writhing, Mouse, SC"}, "[12]": {"details": "po, read-out: ED50 Antagonist Activity, Morphine Antagonism Rat Tail Flick, PO"}, "[13]": {"details": "po, read-out: ED50 Agonist Activity, Phenylquinone Writhing, Rat, PO"}}, "note": "Counter-ions that a name gives are not always drawn. Like-named read-outs stand apart in the source and are kept apart here."}
{"smiles": "C[C@@]12OCCC[C@@]13CCN(CC1CC1)[C@@H]2Cc1ccc(O)cc13", "note": "[d-XVc tartrate, N-Cyclopropylmethyl-3-hydroxy-14β-methyl-8-oxamorphinan]", "values": [{"measurement": "ED50 Antagonist Activity, Morphine Antagonism Rat Tail Flick, SC", "setting": "[1]", "value": "> 20", "unit": "mg/kg"}, {"measurement": "ED50 Antagonist Activity, Oxymorphone Straub Tail, SC", "setting": "[2]", "value": "> 10", "unit": "mg/kg"}, {"measurement": "ED50 Agonist Activity, Phenylquinone Writhing, Mouse, SC", "setting": "[3]; SC", "value": "> 40", "unit": "mg/kg"}]}
{"smiles": "Cl.Oc1ccc2c(c1)[C@@]13CCCO[C@H]1[C@H](C2)N(CC1CC1)CC3", "note": "[l-XVk hydrochloride, l-N-cyclopropylmethyl-3-hydroxy-8-oxamorphinan hydrochloride]", "values": [{"measurement": "ED50", "setting": "[4]; [7]", "value": 0.03, "unit": "mg/kg"}, {"measurement": "ED50", "setting": "[1]; [8]", "value": 0.97, "unit": "mg/kg"}, {"measurement": "ED50", "setting": "[5]; [9]", "value": 0.009, "unit": "mg/kg"}, {"measurement": "ED50", "setting": "[2]; [10]", "value": 0.2, "unit": "mg/kg"}, {"measurement": "ED50", "setting": "[3]; [11]", "value": 0.013, "unit": "mg/kg"}]}
{"smiles": "C[C@@]12OCCC[C@@]13CCN(CC1CC1)[C@@H]2Cc1ccc(O)cc13", "note": "(racemic) [XVc tartrate, N-Cyclopropylmethyl-3-hydroxy-14β-methyl-8-oxamorphinan]", "values": [{"measurement": "ED50", "setting": "[4]; [7]", "value": 0.36, "unit": "mg/kg"}, {"measurement": "ED50", "setting": "[1]; [12]", "value": 7.3, "unit": "mg/kg"}, {"measurement": "ED50", "setting": "[1]; [8]", "value": 0.05, "unit": "mg/kg"}, {"measurement": "ED50", "setting": "[5]; [13]", "value": 4, "unit": "mg/kg"}, {"measurement": "ED50", "setting": "[5]; [9]", "value": 0.03, "unit": "mg/kg"}, {"measurement": "ED50", "setting": "[2]; [10]", "value": 0.61, "unit": "mg/kg"}, {"measurement": "ED50", "setting": "[3]; [11]", "value": 0.19, "unit": "mg/kg"}]}
{"smiles": "C=CCN1CC[C@]23c4c5ccc(O)c4O[C@H]2[C@@H](O)C=C[C@H]3[C@H]1C5", "note": "[Nalorphine, reference compound]", "values": [{"measurement": "ED50", "setting": "[2]; [10]", "value": 1.14, "unit": "mg/kg"}]}
{"smiles": "C[C@@]12OCCC[C@@]13CCN(CC1CC1)[C@@H]2Cc1ccc(O)cc13", "note": "[l-XVc tartrate, N-Cyclopropylmethyl-3-hydroxy-14β-methyl-8-oxamorphinan]", "values": [{"measurement": "agonist and antagonist activity", "setting": "[6]", "value": "potent agonist and antagonist activity"}, {"measurement": "ED50", "setting": "[4]; PO, read-out: ED50 Antagonist Activity, Oxymorphone Narcosis, PO", "value": 1.25, "unit": "mg/kg"}, {"measurement": "ED50", "setting": "[4]; [7]", "value": 0.014, "unit": "mg/kg"}, {"measurement": "ED50", "setting": "[1]; [12]", "value": 6.3, "unit": "mg/kg"}, {"measurement": "ED50 Antagonist Activity, Morphine Antagonism Rat Tail Flick, SC", "setting": "[1]", "value": 0.021, "unit": "mg/kg"}, {"measurement": "ED50", "setting": "[5]; [13]", "value": 1.3, "unit": "mg/kg"}, {"measurement": "ED50 Agonist Activity, Phenylquinone Writhing, Rat, SC", "setting": "[5]; SC", "value": 0.02, "unit": "mg/kg"}, {"measurement": "ED50", "setting": "[2]; po, read-out: ED50 Antagonist Activity, Oxymorphone Straub Tail, PO", "value": 14.6, "unit": "mg/kg"}, {"measurement": "ED50 Antagonist Activity, Oxymorphone Straub Tail, SC", "setting": "[2]", "value": "≈ 0.2 mg./kg."}, {"measurement": "ED50", "setting": "[3]; Mus musculus, po, read-out: ED50 Agonist Activity, Phenylquinone Writhing, Mouse, PO", "value": 2.7, "unit": "mg/kg"}, {"measurement": "ED50 Agonist Activity, Phenylquinone Writhing, Mouse, SC", "setting": "[3]; SC", "value": 0.11, "unit": "mg/kg"}]}
{"smiles": "CC(C)=CCN1CCC2(C)c3cc(O)ccc3CC1C2C", "note": "(stereo not shown) [Pentazocine, reference compound]", "values": [{"measurement": "ED50", "setting": "[4]; [7]", "value": 10, "unit": "mg/kg"}, {"measurement": "ED50", "setting": "[1]; [8]", "value": 12.2, "unit": "mg/kg"}]}
{"smiles": "C=CCN1CC[C@]23CCCC[C@H]2[C@H]1Cc1ccc(O)cc13", "note": "[Levallorphan, reference compound]", "values": [{"measurement": "dose response, Phenylquinone Writhing, Mouse, SC", "setting": "[3]; SC, remark under the ED50", "value": "poor dose"}, {"measurement": "ED50", "setting": "[3]; SC, read-out: ED50 Agonist Activity, Phenylquinone Writhing, Mouse, SC", "value": 26.3, "unit": "mg/kg"}]}
